This test deals with psoriasin secretion. Briefly: In-vitro generation of AMP (psoriasin) in differentiated NHEK keratinocytes, psoriasin ELISA of culture supernatant. It counts as cell-based, Human. The note with it: NHEK cells, KGM + 2 mM calcium chloride, 72 h treatment; fold change over control (Example A); concentrations per Table 3. As to the method: In-Vitro Experiment with Combination of Niacinamide and Picolinamide as Per the Present Invention for Generation of AMP (Psoriasin): The experiment was done using the following protocol: Step 1: Human neonatal primary skin keratinocyte (NHEK) cells was obtained from Lonza®. The experiment was done with the above-mentioned cells with passage between 3 and 4. Then, the cells were seeded (35,000 cells/well) in 24 well plate with keratinocyte growth media (KGM) obtained from Invitrogen®. The plate was then incubated at 37±2° C. in a CO2 incubator for 48 hours. Step 2: After 48 hours of incubation, cell differentiation was induced by replacing media with fresh KGM supplemented with 2 mM calcium chloride solution. This was then followed by incubation at 37±2° C. in a CO2 incubator for 48 hours. Step 3: After that, the cells were treated with different concentration of Niacinamide and picolinamide and their combination at various concentration as per following Table 3 with keratinocyte growth media supplemented with 2 mM calcium chloride solution: Step 4: After the above treatment, cells were again incubated at 37±2° C. in a CO2 incubator for 72 hours Step 5: After 72 h of incubation, cell culture supernatant from each well was collected in a sterile tube. The samples were then stored at −80° C. until used for testing psoriasin secretion by standard ELISA technique using psoriasin ELISA kit obtained from Circulx® (No: CY—8073). In the current experiment, psoriasin was used as a marker for AMP. Step 6: The ELISA method was performed by using 100 μL of cell culture supernatant from each sample. The data is expressed in terms of fold change over control (without Niacinamide and/or picolinamide, Example A).

With `NC(=O)c1cccnc1` [Example B, Niacinamide], the “Fold change in psoriasin secretion” value was 1.8. On to `NC(=O)c1cccnc1` [Example C, Niacinamide], for which the “Fold change in psoriasin secretion” value is on record as 3.3. With `NC(=O)c1ccccn1` [Example D, picolinamide] the figure was 3.5; with `NC(=O)c1ccccn1` [Example E, picolinamide], 3.8.

Source of the values: patent US11298312B2, “Composition comprising niacinamide and picolinamide” (Conopco, Inc., priority 2015, dated 2022).
